Each structure is given as a SMILES string. Where two headings read alike, the source gives them in different places.

This test concerns the target T1, human androgen receptor (Homo sapiens, UniProt P10275).
T1 construct: expressed in transfected cells; host or cells: CHO cells, cell line CHO-AR-pMMTV-LUC 1G12-A5-CA
T1 sequence (P10275 1-920): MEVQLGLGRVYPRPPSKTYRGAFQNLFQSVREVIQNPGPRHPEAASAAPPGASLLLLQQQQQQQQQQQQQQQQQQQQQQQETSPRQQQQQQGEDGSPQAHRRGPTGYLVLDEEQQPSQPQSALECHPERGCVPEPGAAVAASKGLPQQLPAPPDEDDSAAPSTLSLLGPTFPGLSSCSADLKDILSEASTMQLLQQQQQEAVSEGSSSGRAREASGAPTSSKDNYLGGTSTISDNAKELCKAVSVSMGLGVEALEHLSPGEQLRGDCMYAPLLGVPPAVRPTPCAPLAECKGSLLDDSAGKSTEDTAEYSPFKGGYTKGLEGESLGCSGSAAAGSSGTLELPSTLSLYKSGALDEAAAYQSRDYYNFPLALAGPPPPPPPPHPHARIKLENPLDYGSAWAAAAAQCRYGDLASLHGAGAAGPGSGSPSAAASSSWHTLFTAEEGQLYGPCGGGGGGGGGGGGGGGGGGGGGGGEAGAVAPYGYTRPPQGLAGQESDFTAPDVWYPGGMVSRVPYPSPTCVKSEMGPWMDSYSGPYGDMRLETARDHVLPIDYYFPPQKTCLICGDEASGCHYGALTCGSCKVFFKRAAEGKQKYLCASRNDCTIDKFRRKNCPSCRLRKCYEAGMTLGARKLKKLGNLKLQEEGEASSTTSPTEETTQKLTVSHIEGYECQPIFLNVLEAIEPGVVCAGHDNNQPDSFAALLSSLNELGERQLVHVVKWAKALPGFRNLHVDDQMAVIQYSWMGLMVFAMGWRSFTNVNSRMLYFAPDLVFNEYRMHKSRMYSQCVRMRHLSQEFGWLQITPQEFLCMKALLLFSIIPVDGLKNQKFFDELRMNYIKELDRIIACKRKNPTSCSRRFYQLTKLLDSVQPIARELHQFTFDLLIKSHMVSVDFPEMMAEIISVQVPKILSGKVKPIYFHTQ
As to the kind of experiment: androgenic activity (EC50, potency, efficacy), transactivation bioassay in CHO-AR-pMMTV-LUC cells in the presence of 0.1 μmol/l onapristone (Table 5). Format: cell-based. The following applies: for Emax: read-out: ago efficacy; for ago potency: potency expressed as percentage of DHT activity, in the presence of 0.1 μmol/l onapristone. On the procedure: The androgenic activity (EC50, potency, and efficacy) of the compounds in Table 5 was determined in an in vitro bioassay of Chinese hamster ovary (CHO) cells stably transfected with the human androgen receptor expression plasmid and a reporter plasmid in which the MMTV promoter is linked to the luciferase reporter gene. The cell line CHO-AR-pMMTV-LUC 1G12-A5-CA is described in Schoonen et al. (J. Steroid Biochem. Moles. Biol. […]; 74: 213-222). The androgen receptor activity of compounds was determined in the presence of 0.1 μmol/l onapristone. The maximal efficacy in the presence of 100 nmol/l DHT was set as 100%. The potencies are expressed as percentage of DHT activity.

Setting [1] is: maximal intrinsic activity, activity in the presence of 100 nM DHT set at 1.00, CHO-AR-pMMTV-LUC cells, 0.1 μmol/l onapristone.

For `COc1ccc2c(Sc3ccccc3[N+](=O)[O-])cn(Cc3ccncn3)c2c1` [Compound 116, 6-Methoxy-3-(2-nitro-phenylsulfanyl)-1-pyrimidin-4-ylmethyl-1H-indole], the Emax under setting [1] lay in the range of 50 to 80%. Moreover, the ago potency entry (CHO-AR-pMMTV-LUC cells) is “+ (between 1% and 5%)”.

Regarding `CCNC(=O)c1ccc2c(Sc3ccccc3[N+](=O)[O-])cn(Cc3cccnc3)c2c1` [Compound 113, 3-(2-Nitro-phenylsulfanyl)-1-pyridin-3-ylmethyl-1H-indole-6-carboxylic acid ethylamide], the Emax under setting [1] is 50 to 80%. The ago potency result (CHO-AR-pMMTV-LUC cells) is “+ (between 1% and 5%)”.

`Cl.N#Cc1ccc2c(Sc3ccccc3[N+](=O)[O-])cn(Cc3ccccn3)c2c1` [Compound 120, 3-(2-Nitro-phenylsulfanyl)-1-pyridin-2-ylmethyl-1H-indol-6-carbonitrile monohydrochloride]: under setting [1], the ago efficacy result is “++ (≧0.80)”. For the same molecule, the ago potency entry (CHO-AR-pMMTV-LUC cells) is on record as “++ (>5%)”.

In the case of `O=CNc1ccc2c(Sc3ccccc3[N+](=O)[O-])cn(Cc3cncnc3)c2c1` [Compound 118, N-[3-(2-Nitro-phenylsulfanyl)-1-pyrimidin-5-ylmethyl-1H-indol-6-yl]-formamide], under setting [1], the Emax fell in the range of 50 to 80%. The ago potency result (CHO-AR-pMMTV-LUC cells) is on record as “++ (>5%)”.

Regarding `O=C(CF)Nc1ccc2c(Sc3ccccc3[N+](=O)[O-])cn(Cc3cccnc3)c2c1` [Compound 104, 2-Fluoro-N-[3-(2-nitro-phenylsulfanyl)-1-pyridin-3-ylmethyl-1H-indol-6-yl]-acetamide], the Emax was less than 20%. Also, the ago potency result (CHO-AR-pMMTV-LUC cells) was “+ (between 1% and 5%)”.

With `CCC(=O)Nc1ccc2c(Sc3ccccc3[N+](=O)[O-])cn(Cc3cc(F)cc(F)c3)c2c1` [Compound 99, N-[1-(3,5-Difluoro-benzyl)-3-(2-nitro-phenylsulfanyl)-1H-indol-6-yl]-propionamide], the Emax under setting [1] is 50 to 80%. The ago potency result (CHO-AR-pMMTV-LUC cells) was “± (between 0.1% and 1%)”.

Take `CC(=O)Nc1ccc2c(Sc3ccccc3[N+](=O)[O-])cn(Cc3cccnc3)c2c1` [Compound 103, N-[3-(2-Nitro-phenylsulfanyl)-1-pyridin-3-ylmethyl-1H-indol-6-yl]-acetamide]: the Emax under setting [1] was in the range of 50 to 80%. For the same molecule, the ago potency entry (CHO-AR-pMMTV-LUC cells) was “+ (between 1% and 5%)”.

Consider `O=C(CF)Nc1ccc2c(Sc3ccccc3[N+](=O)[O-])cn(Cc3ccccn3)c2c1` [Compound 100, 2-Fluoro-N-[3-(2-nitro-phenylsulfanyl)-1-pyridin-2-ylmethyl-1H-indol-6-yl]-acetamide], for which the Emax was greater than 80%. Besides, the ago potency entry (CHO-AR-pMMTV-LUC cells) is “+ (between 1% and 5%)”.
